According to the supplement of paper PMC11451515:

Experiments:
Conditions in all cases: 48 h
P12-Ichikawa [1] = assay: AUC of viability dose-response curve (% viability x log10 dose units); higher = less sensitive
Method in brief: (§1)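 Leukemia cells adapted to each medium were seeded in 1536-well plates (500 or 1000 cells/well) and given library compounds in DMSO for 48 h at 37°C. The 11 threefold doses spanned 47 μM to 0.79 nM, and CellTiter-Glo One luminescence was normalised per plate to DMSO and cell-free wells before four-parameter log-logistic fitting on log10 dose. Area under the curve was integrated with the trapezoidal rule, scaling curves above full viability and removing curves that failed quality control.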

NOMO1 [2] = assay: as above
Method in brief: as §1

SEM cells [3] = assay: cell viability relative to DMSO control; higher = less cytotoxic
Method in brief: (§2)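 Cells were incubated for 48 h at 37°C before CellTiter-Glo One luminescence was read. The cells were NOMO1 or SEM (500 cells/well) or P12-Ichikawa (1000 cells/well) leukemia cells, adapted for at least four passages in each medium and seeded in 1536-well plates (5 μl). Dosing used library compounds in DMSO applied by pin over 11 threefold points, 47 μM to 0.79 nM. Viability is the per-plate percentage of DMSO wells, with cell-free wells as background.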

P12-Ichikawa [4] = assay: as above
Method in brief: as §2

NOMO1 [5] = assay: as above
Method in brief: as §2

SEM cells [6] = assay: AUC of viability dose-response curve (% viability x log10 dose units); higher = less sensitive
Method in brief: as §1

Oc1ccc(OCc2ccccc2)cc1
AUC of viability dose-response curve
Conditions | HPLM + 10% dialyzed FBS | RPMI 5 mM glucose + 10% FBS | RPMI 5 mM glucose + 10% dialyzed FBS
NOMO1 [2] | 441 | 444 | 457
P12-Ichikawa [1] | 435 | 420 | 407

cell viability [%]
Conditions | NOMO1 [5] | P12-Ichikawa [4] | SEM cells [3]
HPLM + 10% dialyzed FBS, 0.000781 µM | 108 | 114 | 89.8
HPLM + 10% dialyzed FBS, 0.00234 µM | 131 | 114 | 106
HPLM + 10% dialyzed FBS, 0.00702 µM | 116 | 119 | 98.9
HPLM + 10% dialyzed FBS, 0.0211 µM | 106 | 105 | 113
HPLM + 10% dialyzed FBS, 0.0632 µM | 132 | 119 | 20.8
HPLM + 10% dialyzed FBS, 0.19 µM | 108 | 102 | 103
HPLM + 10% dialyzed FBS, 0.569 µM | 102 | 115 | 106
HPLM + 10% dialyzed FBS, 1.71 µM | 107 | 103 | 97.1
HPLM + 10% dialyzed FBS, 5.12 µM | 105 | 90.1 | 92.5
HPLM + 10% dialyzed FBS, 15.4 µM | 79.7 | 69.9 | 47.7
HPLM + 10% dialyzed FBS, 46.1 µM | 48.6 | 65.3 | 28.7
RPMI 5 mM glucose + 10% FBS, 0.000781 µM | 119 | 114 | 103
RPMI 5 mM glucose + 10% FBS, 0.00234 µM | 113 | 116 | 106
RPMI 5 mM glucose + 10% FBS, 0.00702 µM | 127 | 111 | 108
RPMI 5 mM glucose + 10% FBS, 0.0211 µM | 120 | 127 | 110
RPMI 5 mM glucose + 10% FBS, 0.0632 µM | 114 | 106 | 13.6
RPMI 5 mM glucose + 10% FBS, 0.19 µM | 127 | 114 | 113
RPMI 5 mM glucose + 10% FBS, 0.569 µM | 105 | 109 | 114
RPMI 5 mM glucose + 10% FBS, 1.71 µM | 104 | 93.7 | 104
RPMI 5 mM glucose + 10% FBS, 5.12 µM | 101 | 83.4 | 77.6
RPMI 5 mM glucose + 10% FBS, 15.4 µM | 110 | 68.4 | 58.3
RPMI 5 mM glucose + 10% FBS, 46.1 µM | 87.8 | 64.8 | 31.6
RPMI 5 mM glucose + 10% dialyzed FBS, 0.000781 µM | 110 | 105 | 112
RPMI 5 mM glucose + 10% dialyzed FBS, 0.00234 µM | 116 | 115 | 114
RPMI 5 mM glucose + 10% dialyzed FBS, 0.00702 µM | 105 | 114 | 130
RPMI 5 mM glucose + 10% dialyzed FBS, 0.0211 µM | 112 | 117 | 119
RPMI 5 mM glucose + 10% dialyzed FBS, 0.0632 µM | 108 | 106 | 47.4
RPMI 5 mM glucose + 10% dialyzed FBS, 0.19 µM | 106 | 115 | 109
RPMI 5 mM glucose + 10% dialyzed FBS, 0.569 µM | 114 | 107 | 126
RPMI 5 mM glucose + 10% dialyzed FBS, 1.71 µM | 113 | 86.5 | 109
RPMI 5 mM glucose + 10% dialyzed FBS, 5.12 µM | 116 | 75.2 | 98.9
RPMI 5 mM glucose + 10% dialyzed FBS, 15.4 µM | 89.9 | 52.4 | 69.2
RPMI 5 mM glucose + 10% dialyzed FBS, 46.1 µM | 60.7 | 44.6 | 30.3

C[S+](=O)([O-])c1ccc([C@@H](O)[C@@H](CO)NC(=O)C(Cl)Cl)cc1
AUC of viability dose-response curve
Conditions | NOMO1 [2] | P12-Ichikawa [1] | SEM cells [6]
HPLM + 10% dialyzed FBS | 445 | 456 | 432
RPMI 5 mM glucose + 10% FBS | 476 | 431 | 421
RPMI 5 mM glucose + 10% dialyzed FBS | 455 | 420 | 450

CCn1c(=O)c2c(nc(/C=C/c3ccc(OC)c(OC)c3)n2C)n(CC)c1=O
AUC of viability dose-response curve
Conditions | NOMO1 [2] | P12-Ichikawa [1] | SEM cells [6]
HPLM + 10% dialyzed FBS | 425 | 467 | 470
RPMI 5 mM glucose + 10% FBS | 424 | 451 | 463
RPMI 5 mM glucose + 10% dialyzed FBS | 436 | 464 | 472

CNC[C@H](O)[C@@H](O)[C@H](O)[C@H](O)CO
AUC of viability dose-response curve
Conditions | HPLM + 10% dialyzed FBS | RPMI 5 mM glucose + 10% FBS | RPMI 5 mM glucose + 10% dialyzed FBS
NOMO1 [2] | 432 | 473 | 470
P12-Ichikawa [1] | 471 | 471 | 474

cell viability [%]
Conditions | HPLM + 10% dialyzed FBS | RPMI 5 mM glucose + 10% FBS | RPMI 5 mM glucose + 10% dialyzed FBS
P12-Ichikawa [4], 0.000781 µM | 114 | – | 109
P12-Ichikawa [4], 0.00234 µM | 124 | – | 126
P12-Ichikawa [4], 0.00702 µM | 122 | – | 124
P12-Ichikawa [4], 0.0211 µM | 130 | – | 125
P12-Ichikawa [4], 0.0632 µM | 123 | – | 125
P12-Ichikawa [4], 0.19 µM | 125 | – | 126
P12-Ichikawa [4], 0.569 µM | 120 | – | 122
P12-Ichikawa [4], 1.71 µM | 134 | – | 131
P12-Ichikawa [4], 5.12 µM | 128 | – | 123
P12-Ichikawa [4], 15.4 µM | 119 | – | 119
P12-Ichikawa [4], 46.1 µM | 119 | – | 126
SEM cells [3], 0.000781 µM | 96.3 | 103 | 98.1
SEM cells [3], 0.00234 µM | 106 | 96.2 | 118
SEM cells [3], 0.00702 µM | 103 | 107 | 98.8
SEM cells [3], 0.0211 µM | 106 | 93.9 | 88.8
SEM cells [3], 0.0632 µM | 106 | 117 | 116
SEM cells [3], 0.19 µM | 114 | 115 | 103
SEM cells [3], 0.569 µM | 127 | 132 | 122
SEM cells [3], 1.71 µM | 63.4 | 61.3 | 58.3
SEM cells [3], 5.12 µM | 121 | 112 | 136
SEM cells [3], 15.4 µM | 40.9 | 24.9 | 28
SEM cells [3], 46.1 µM | 112 | 114 | 119

CC(=O)OCC(=O)[C@@]1(O)CC[C@H]2[C@@H]3CCC/4=C/C(=O)CC[C@]4(C)[C@H]3C(=O)C[C@]12C
AUC of viability dose-response curve
Conditions | NOMO1 [2] | P12-Ichikawa [1] | SEM cells [6]
HPLM + 10% dialyzed FBS | 464 | 460 | 466
RPMI 5 mM glucose + 10% FBS | 476 | 470 | 466
RPMI 5 mM glucose + 10% dialyzed FBS | 459 | 430 | 445

SEM cells [3], HPLM + 10% dialyzed FBS
Conditions | cell viability [%]
0.000781 µM | 106
0.00234 µM | 109
0.00702 µM | 112
0.0211 µM | 101
0.0632 µM | 107
0.19 µM | 117
0.569 µM | 84.5
1.71 µM | 51.8
5.12 µM | 112
15.4 µM | 111
46.1 µM | 118
